Test systems include MCF7 breast; HCC-2998 colon; NCI-H522 lung; IGROV1 ovarian; NCI/ADR-RES ovarian; SNB-19 CNS; MDA-MB-231 breast; 786-0 renal; OVCAR-4 ovarian; RXF 393 renal.
Assay in all cases: DTP human tumour cell line panel, 48 h

Usually TGI stands for the concentration at which net growth stops. Higher therefore signals lower sensitivity of the cells. A word on the GI50: it is the concentration that inhibits growth by half.

The structures appear in SMILES notation.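 Cells were grown in 96-well plates and exposed to each compound for 48 hours at five concentrations; endpoints were interpolated linearly between bracketing concentrations, or set to the highest concentration if not reached. Abbreviation: GI50, concentration required for 50% inhibition of growth. At the TGI there is no net growth.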

For `O=C1c2ccccc2C(=O)N1CCc1ncc(-c2ccccc2)[nH]1`, the TGI in the assay on MCF7 breast, with HCC-2998 colon, with NCI-H522 lung, in the assay with IGROV1 ovarian, in the assay with NCI/ADR-RES ovarian and in the assay with SNB-19 CNS was over 100 µM in each case. The TGI with MDA-MB-231 breast, in the assay with 786-0 renal and with OVCAR-4 ovarian was over 100 µM each time.
As to `COc1ccc(C(=O)C2CCC(C(=O)O)C2)cc1` (stereo not given), the concentration for total growth inhibition (TGI) with HCC-2998 colon, with NCI-H522 lung, in the assay with IGROV1 ovarian, in the assay with RXF 393 renal, in the assay with SNB-19 CNS and in the assay on 786-0 renal was over 100 µM in each case. This compound also had a total growth inhibition concentration (TGI) with OVCAR-4 ovarian of over 100 µM.
Regarding `COc1ccc(NC(=O)Oc2ccc3c(C)cc(=O)oc3c2)c(OC)c1` (tested in a mixture with another compound), the concentration for total growth inhibition (TGI) in the assay with HCC-2998 colon, in the assay on NCI-H522 lung, in the assay on IGROV1 ovarian, with RXF 393 renal, in the assay on NCI/ADR-RES ovarian and with SNB-19 CNS was over 100 µM in each case. For the same compound, the TGI in the assay with MDA-MB-231 breast, in the assay on 786-0 renal and in the assay on OVCAR-4 ovarian was over 100 µM in each case.
For the compound `Cc1ccc(OP(=O)(Oc2ccc(C)cc2)N2C=Cc3ccccc3C2C#N)cc1` (stereo not given), the TGI with MCF7 breast, with NCI-H522 lung, in the assay with IGROV1 ovarian, with RXF 393 renal, in the assay with NCI/ADR-RES ovarian and with SNB-19 CNS was over 100 µM throughout. For the same compound, the concentration for total growth inhibition (TGI) with MDA-MB-231 breast, in the assay on 786-0 renal and in the assay with OVCAR-4 ovarian was over 100 µM throughout.
For the compound `O=c1cc(-c2ccc(F)cc2)[nH]c2ncccc12`, the total growth inhibition concentration (TGI) in the assay with MCF7 breast, in the assay with HCC-2998 colon, with NCI-H522 lung, in the assay with IGROV1 ovarian, in the assay with NCI/ADR-RES ovarian and in the assay on SNB-19 CNS was over 100 µM each time. The TGI in the assay on MDA-MB-231 breast, with 786-0 renal and in the assay with OVCAR-4 ovarian was over 100 µM each time. Further, the GI50 in the assay on 786-0 renal is 44.3 µM.
In the case of `COC(=O)CCC(=O)Nc1ccc(Cl)cc1C`, the TGI with HCC-2998 colon, with NCI-H522 lung, in the assay with IGROV1 ovarian, in the assay with RXF 393 renal, with SNB-19 CNS and in the assay with 786-0 renal was over 100 µM each time. The compound also displayed a concentration for total growth inhibition (TGI) in the assay with OVCAR-4 ovarian of over 100 µM.
Regarding `CSC(=NC(=O)c1ccccc1Cl)SCCSC(=NC(=O)c1ccccc1Cl)SC`, the TGI in the assay with HCC-2998 colon, with NCI-H522 lung, in the assay with IGROV1 ovarian, in the assay with RXF 393 renal, with SNB-19 CNS and in the assay with 786-0 renal was over 100 µM throughout. Also, the TGI with OVCAR-4 ovarian was over 100 µM.
With `CCC[CH2][Sn](=[O])[CH2]CCC`, the GI50 in the assay on HCC-2998 colon was over 50 µM; in the assay on NCI-H522 lung, over 50 µM; in the assay with IGROV1 ovarian, over 50 µM; with RXF 393 renal it was 47.7 µM; with SNB-19 CNS it was over 50 µM; in the assay on 786-0 renal, over 50 µM. Besides, the GI50 in the assay on OVCAR-4 ovarian is over 50 µM. The concentration for total growth inhibition (TGI) in the assay on HCC-2998 colon, in the assay on NCI-H522 lung, in the assay with IGROV1 ovarian, in the assay with RXF 393 renal, with SNB-19 CNS and in the assay on 786-0 renal was over 50 µM throughout. The concentration for total growth inhibition (TGI) in the assay with OVCAR-4 ovarian was over 50 µM.
For the compound `c1ccc(SC(Sc2ccccc2)=C2CCC2)cc1`, the concentration for total growth inhibition (TGI) in the assay with NCI-H522 lung, with RXF 393 renal, with SNB-19 CNS, in the assay with 786-0 renal and in the assay with OVCAR-4 ovarian was over 100 µM each time.
As to `O=C(O)/C=C/c1ccc(Oc2ccccc2C(=O)O)o1`, the TGI in the assay with MCF7 breast, in the assay with HCC-2998 colon, in the assay with NCI-H522 lung, in the assay on IGROV1 ovarian, in the assay on NCI/ADR-RES ovarian and in the assay with SNB-19 CNS was over 10 µM throughout. For the same compound, the TGI with MDA-MB-231 breast, in the assay with 786-0 renal and in the assay with OVCAR-4 ovarian was over 10 µM in each case.
Turning to `NC(=S)N1N=C2CCCCCC[C@@H]2[C@H]1c1ccccc1`, the TGI in the assay with HCC-2998 colon is over 100 µM; in the assay on NCI-H522 lung, 82.9 µM; in the assay on IGROV1 ovarian, over 100 µM; in the assay with RXF 393 renal, over 100 µM; with SNB-19 CNS it was over 100 µM; in the assay with 786-0 renal it was over 100 µM.
For the compound `CCCCCCCCCCCCSC(=S)c1c(C)[nH]n(-c2ccccc2)c1=O`, the concentration for total growth inhibition (TGI) was 21.5 µM in the assay with HCC-2998 colon; over 50 µM in the assay with IGROV1 ovarian; 24.5 µM with RXF 393 renal; over 50 µM in the assay on SNB-19 CNS; over 50 µM in the assay with 786-0 renal; over 50 µM in the assay on OVCAR-4 ovarian.
As to `COc1ccc2c(c1)c(-c1nc(-c3cn(C)c4ccncc34)cs1)cn2C`, the GI50 with MCF7 breast was 1.7 µM; in the assay on HCC-2998 colon, 1.89 µM; in the assay with NCI-H522 lung it was 1.77 µM; in the assay on IGROV1 ovarian it was 1.92 µM; in the assay on RXF 393 renal, 1.71 µM; in the assay on SNB-19 CNS it was 2.26 µM. The GI50 is 1.83 µM in the assay on MDA-MB-231 breast, 1.6 µM in the assay on 786-0 renal and 2.1 µM in the assay with OVCAR-4 ovarian. Moreover, the concentration for total growth inhibition (TGI) in the assay with MCF7 breast stood at 3.34 µM; with HCC-2998 colon, 3.38 µM; with NCI-H522 lung, 3.26 µM; in the assay on IGROV1 ovarian, 3.65 µM; in the assay on RXF 393 renal, 3.21 µM; with SNB-19 CNS it was 4.73 µM. The values for the TGI with MDA-MB-231 breast, in the assay on 786-0 renal and in the assay on OVCAR-4 ovarian were 3.53 µM, 3.15 µM and 4.62 µM, respectively.
Turning to `CC(=O)OCc1c(O)c2c([nH]c1=O)CCc1ccccc1-2`, the total growth inhibition concentration (TGI) was 197 µM with HCC-2998 colon; 84.6 µM with NCI-H522 lung; over 350 µM with IGROV1 ovarian; 105 µM with RXF 393 renal; over 350 µM in the assay on SNB-19 CNS; 115 µM with 786-0 renal.
Turning to `CCOC(=O)C12CCCC1(O)N(NC(=O)OC)C(C)=C2C(=O)OC` (stereo not given), the TGI with HCC-2998 colon was over 100 µM; in the assay on NCI-H522 lung, over 100 µM; with IGROV1 ovarian, over 100 µM; in the assay with SNB-19 CNS, over 100 µM; in the assay on 786-0 renal it was 92.2 µM; in the assay on OVCAR-4 ovarian, over 100 µM.
For `Cc1ccc(/C=C/C(=O)c2ccc(Cl)c(Cl)c2)cc1`, the concentration for total growth inhibition (TGI) with HCC-2998 colon, with NCI-H522 lung, with IGROV1 ovarian, in the assay on RXF 393 renal, in the assay with SNB-19 CNS and in the assay on 786-0 renal was over 100 µM each time. Moreover, the concentration for total growth inhibition (TGI) with OVCAR-4 ovarian was over 100 µM.

The values are drawn from PubChem BioAssay (NCI).
